# In publication PMC6422423, “Constitutively active BRS3 is a genuinely orphan GPCR in placental mammals” (PLoS Biology, 2019):
# Target: T1, GRPR (Homo sapiens, UniProt P30550)
# T1 construct: HA; expressed in transfected cells; host or cells: HEK293
# Assay: Radioligand binding (competition)
# Conditions: [125I]-Tyr42-GRP
# Method: HEK293 cells were seeded in a 10-cm tissue culture dish at a density of 10^6 cells per dish and grown overnight at 37°C in growth medium. The following morning, 5 μg of different species’ BRS3 plasmids were transfected. After 6 h, the medium was replaced with growth medium. Cells were maintained at 37°C in a 5% CO2 atmosphere and used 48 h later for binding assays. The positive control group included transfected GRPR and NMBR; the test group consisted of transfected BRS3 from different species. Then, [^125I]-Tyr^42-GRP and [^125I]-Tyr-NMB were used as the ligands to assess affinity to the various receptors. […] After the incubation, 100 μl aliquots were added to 1.5-ml microfuge tubes, which contained 100 μl of binding buffer to determine the total radioactivity. […] The amount of radioactivity bound to the cells was measured in a Cobra II Gamma counter (Packard Instruments). Binding was expressed as the percentage of total radioactivity that was associated with the cell pellet. […] Each point was measured in duplicate, and each experiment was replicated at least four times. […] All the experiment data were calculated using 1 pM ligand-treated as 100% control.
# T1 sequence (P30550 whole entry, species assumed): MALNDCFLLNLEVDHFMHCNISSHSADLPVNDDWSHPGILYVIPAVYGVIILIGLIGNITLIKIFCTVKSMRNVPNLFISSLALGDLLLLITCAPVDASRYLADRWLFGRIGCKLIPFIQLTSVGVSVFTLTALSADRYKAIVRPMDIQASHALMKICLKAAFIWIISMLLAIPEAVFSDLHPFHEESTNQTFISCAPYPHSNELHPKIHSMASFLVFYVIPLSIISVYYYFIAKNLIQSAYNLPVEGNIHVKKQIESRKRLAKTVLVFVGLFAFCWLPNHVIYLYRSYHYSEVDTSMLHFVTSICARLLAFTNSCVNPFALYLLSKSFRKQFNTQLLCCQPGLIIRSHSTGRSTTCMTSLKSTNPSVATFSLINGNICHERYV
substance,measurement,value
neuromedin B [NMB],Inhibition of GRPR–GRP binding (in words),very low affinity
